Test results taken from patent publication US20090326008A1, “NF-kappa B Inhibitor” (priority 2006, published 2009).

Legend:
[1] = tested on: COX2; experiment: Relative COX2 mRNA expression in IL-1β-stimulated MKN-45 cells (real-time PCR); format: cell-based, human; conditions: IL-1β-stimulated DMSO-treated cells = 100%, ACTB reference
Experimental: (§1) RNA was extracted from the cells used in Example 2 according to the manufacturer's protocol for ABI Prism 6100 Nucleic Acid PrepStation (a nucleic acid isolation system, product of Applied Biosystems). More specifically, after removal of the culture supernatant and washing with 1 mL of PBS, 250 μL of Nucleic Acid Purification Lysis Solution (Part No. 4305895, Applied Biosystems) was added, and then agitated using a shaker for 2 to 3 minutes. The Lysis Solution containing the cell lysate was collected, and the total amount was transferred to the wells of RNA Purification Tray (Part No. 4305673, Applied Biosystems), which had been pre-wet with 40 μL of Nucleic Acid Purification Wash Solution I (Part No. 4305891, Applied Biosystems) beforehand. Aspiration (20% pressure) was performed for 2 minutes to adsorb the sample onto the RNA Purification Tray, followed by sequentially adding and aspirating (20% pressure, 2 min.) 500 μL of Wash Solution I, Nucleic Acid Purification (Part No. 4305891, Applied Biosystems), 400 μL of Wash Solution II, Nucleic Acid Purification (Part No. 4305890, product of Applied Biosystems), 400 μL of the Wash Solution II, and 300 μL of the Wash Solution II in that order. Aspiration (90% pressure) was performed for 5 minutes to remove the water content from the RNA Purification Trays. After addition of 150 μL of Elution Solution, Nucleic Acid Purification (Part No. 4305893, product of Applied Biosystems), aspiration (20% pressure) was performed for 2 minutes, while collecting the outflow. This was used as collected RNA solution.
(§2) Absorbance of the collected RNA solution at 260 nm was measured using a microplate spectrophotometer (“SpectraMax Plus”, product of Molecular Devices) with an analysis software (“SOFTmaxPRO ver.3.1.2”, product of Molecular Devices), and the RNA concentration was determined from the absorbance. Likewise, absorbance at 280 nm was measured and the purity of the RNA was determined using the analysis software.
(§3) cDNA was synthesized according to the manufacturer's protocol for TaqMan® Reverse Transcription Reagents (Part No. N808-0234, product of Applied Biosystems). More specifically, about 0.5 μg of RNA, 2.5 μL of 10×RT buffer, 5.5 μL of MgCl2 solution, 5 μL of dNTP mixture, 1.25 μL of random hexamer (primers), 0.5 μL of RNase inhibitor, and 0.63 μL of MultiScribe Reverse Transcriptase (product of Applied Biosystems) were added to each collected RNA sample in a tube, and DEPC-treated water was added to make a total volume of 25 μL and stirred. A reaction consisting of 25° C. for 10 minutes, 48° C. for 30 minutes, and 95° C. for 5 minutes was performed using a PCR thermal cycler (“TaKaRa PCR Thermal Cycler Dice”, product of Takara Bio Inc.) to prepare a cDNA solution.
(§4) PCR was performed according to the manufacturer's protocol for TaqMan® Gene Expression Assays (product of Applied Biosystems). More specifically, 5 μL of TaqMan® Fast Universal PCR Master Mix (product of Applied Biosystems), 0.5 μL of TaqMan® Gene Expression Assays for the target gene (gene-specific probe and primer sets, product of Applied Biosystems), and 4.5 μL of the above-obtained cDNA solution were added to each sample and stirred. A PCR reaction consisting of heating at 95° C. for 20 seconds, followed by 40 cycles consisting of heating at 95° C. for 3 seconds and annealing and extension at 60° C. for 30 seconds was performed using a real-time PCR device (“Applied Biosystems 7500 Real-Time PCR System”) with SDS v1.4 Software (product of Applied Biosystems). Threshold cycle (Ct) values were calculated using the software.
(§5) The Assay IDs of the TaqMan® Gene Expression Assays for the target genes used are as follows:
(§6) The expression level of each gene was determined according to the following formula using the level of ACTB as a reference standard.
(§7) (Relative mRNA expression level)=2̂−{(Ct value of the target gene)−(Ct value of ACTB)} […]

[2] = tested on: IL-8; experiment: Relative IL-8 mRNA expression in IL-1β-stimulated MKN-45 cells (real-time PCR); format: cell-based, human; conditions: IL-1β-stimulated DMSO-treated cells = 100%, ACTB reference
Experimental: as §1, §2, §3, §4, §5, §6, §7

COc1ccc(CC2SC(=S)NC2=O)c2c1N(CCC(C)C)C(=O)CC2 (centres unmarked) [Test Compound 965]
COX2 relative mRNA expression level, Mean [1]: 37.6%
IL-8 relative mRNA expression level, Mean [2]: 61.2%
